Values belong to the molecule of their own block, whether it stands above or below them. Non-standard residues stand in square brackets, D forms with d. Residues, ends and D or L forms follow the SMILES beside them. ξ: configuration not given here. *: point of attachment. Ala(1H-tetrazol-5-yl) = N[C@@H](Cc1nnn[nH]1)C(=O)O; ξAla(tetrazol-5-yl) = NC(Cc1nnn[nH]1)C(=O)O; Isobutyryl = CC(C)C(=O)*; Nle = CCCC[C@H](N)C(=O)O; Butyryl = CCCC(=O)*
Experiments:
[1] = biological target: T1, PAC1 receptor (PAC1R) (Homo sapiens, UniProt P41586); details: background statement; cited from earlier work
T1 sequence (P41586 21-468): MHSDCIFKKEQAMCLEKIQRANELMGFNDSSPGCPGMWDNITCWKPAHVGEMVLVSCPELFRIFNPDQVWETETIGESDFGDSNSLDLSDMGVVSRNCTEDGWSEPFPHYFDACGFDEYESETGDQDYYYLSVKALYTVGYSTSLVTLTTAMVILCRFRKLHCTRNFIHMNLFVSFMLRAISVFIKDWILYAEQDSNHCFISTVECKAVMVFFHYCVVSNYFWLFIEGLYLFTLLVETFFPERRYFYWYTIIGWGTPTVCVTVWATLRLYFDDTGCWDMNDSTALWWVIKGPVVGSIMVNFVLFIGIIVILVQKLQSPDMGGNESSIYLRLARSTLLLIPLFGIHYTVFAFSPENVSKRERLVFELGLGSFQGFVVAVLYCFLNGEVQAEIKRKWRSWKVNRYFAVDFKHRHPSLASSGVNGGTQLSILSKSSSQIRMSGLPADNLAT

[2] = biological target: T2, VPAC1 receptor (Homo sapiens, UniProt P32241); assay: cAMP assay in CHO-K1 cells, VPAC1 receptor high-expressing cell line; assay type: cell-based; details: 30 minutes incubation
T2 construct: host or cells: CHO-K1
T2 sequence (P32241 31-457): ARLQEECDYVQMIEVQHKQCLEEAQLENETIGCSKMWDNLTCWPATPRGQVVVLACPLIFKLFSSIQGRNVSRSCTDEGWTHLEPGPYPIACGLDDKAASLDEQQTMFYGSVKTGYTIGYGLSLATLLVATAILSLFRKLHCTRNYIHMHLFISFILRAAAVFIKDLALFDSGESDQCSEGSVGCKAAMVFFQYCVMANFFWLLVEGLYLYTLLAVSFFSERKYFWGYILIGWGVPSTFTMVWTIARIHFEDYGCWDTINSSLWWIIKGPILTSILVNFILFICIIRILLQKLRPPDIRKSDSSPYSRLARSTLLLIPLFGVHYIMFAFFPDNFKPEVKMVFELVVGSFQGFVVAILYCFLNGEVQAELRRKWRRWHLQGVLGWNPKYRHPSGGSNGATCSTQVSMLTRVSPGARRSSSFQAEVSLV
Experimental: The cells were cultured for 18 to 24 hours at 37° C. in a 5% CO2 incubator, adhering the cells to the plate. […] A 5-fold dilution series was then prepared with the same Cell assay buffer and used in an assay. The cAMP assay was carried out using a Hit Hunter cAMP Assay for Biologics kit (product of DiscoveRx, Cat. No. 90-0075LM25), according to the included kit instructions. […] Next, the culture medium was removed from the CHO-K1 cell culture plate, washing was performed with PBS, and the peptide-cAMP antibody liquid mixtures were added to the cells and incubated for 30 minutes under a 5% CO2 atmosphere at 37° C. A working detection solution was then added and the culture plate was shielded from light with aluminum foil and incubated at 25° C. for 1 hour. After incubation, Solution A was added and the culture plate was shielded from light with aluminum foil and then incubated at 25° C. for 3 hours. […] The obtained value for the Relative Luminescence Unit (RLU) was analyzed with GraphPad Prism Ver 6.05 (product of Graph Pad) and the EC50 value was calculated for each peptide.

[3] = Stability test 1: survival rate of peptide in phosphate buffer (pH 7.0) after storage, HPLC; assay type: physicochemical; details: 100 μM peptide
How it was run: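 Peptide solutions at 100 μM in phosphate buffer were stored at 40° C. for 1 week to 2 months depending on peptide. Remaining peptide was measured by reverse-phase HPLC peak area against an unstored standard, with survival rate also corrected for water loss through the container from weighing before and after storage.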

[4] = Stability test 1, sample preparation 5: survival rate of peptide in Tris buffer (pH 7.0) after storage, HPLC; assay type: physicochemical; details: 100 μM peptide
How it was run: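 Peptide in Tris buffer pH 7.0 stored 4 or 8 weeks at 40° C. or 1 or 2 weeks at 60° C. Survival rate taken from HPLC peptide peak area, reported before and after correction for water loss through the container.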

[5] = Stability test 1: survival rate of peptide in phosphate buffer (pH 7.0) after storage, HPLC; assay type: physicochemical; details: 100 μM peptide, 0.1% phosphate buffer pH 7.0, head prints 80° C., 8 weeks (Table 4)
[6] = phosphate buffer pH 7.0, 40° C., 4 weeks (Table 8)

Molecule: Pituitary adenylate cyclase-activating polypeptide [PACAP]
affinity of PAC1R for PACAP relative to affinity of PAC1R for VIP [1]: more than 1000 times

EC50 [2]: 0.069 nM
Molecule: CCCC[C@H](NC(=O)[C@H](CCC(N)=O)NC(=O)[C@H](CCCCN)NC(=O)[C@H](CCCNC(=N)N)NC(=O)[C@H](Cc1ccc(O)cc1)NC(=O)[C@H](CCCNC(=N)N)NC(=O)[C@H](CO)NC(=O)[C@H](Cc1ccc(O)cc1)NC(=O)[C@H](CO)NC(=O)[C@H](Cc1nnn[nH]1)NC(=O)[C@@H](NC(=O)[C@H](Cc1ccccc1)NC(=O)[C@@H](NC(=O)CNC(=O)[C@H](Cc1nnn[nH]1)NC(=O)[C@H](CO)NC(=O)[C@H](Cc1c[nH]cn1)NC(=O)C(C)C)[C@@H](C)CC)[C@@H](C)O)C(=O)N[C@@H](C)C(=O)N[C@H](C(=O)N[C@@H](CCCCN)C(=O)N[C@@H](CCCCN)C(=O)N[C@@H](Cc1ccc(O)cc1)C(=O)N[C@@H](CC(C)C)C(=O)N[C@@H](C)C(=O)N[C@@H](C)C(=O)N[C@H](C(=O)N[C@@H](CC(C)C)C(N)=O)C(C)C)C(C)C [Peptide 19, HSTzGI FTTzSY SRYRK QNIAVK KYLAA VL] (Isobutyryl-HS[Ala(1H-tetrazol-5-yl)]GIFT[Ala(1H-tetrazol-5-yl)]SYSRYRKQ[Nle]AVKKYLAAVL-NH2)
survival rate after correction for water, 40° C. 4 week [3, 6]: 68.7%

EC50 [2]: 0.111 nM
Molecule: CC[C@H](C)[C@H](NC(=O)CNC(=O)[C@H](Cc1nnn[nH]1)NC(=O)[C@H](CO)NC(=O)[C@H](Cc1c[nH]cn1)NC(C)=O)C(=O)N[C@@H](Cc1ccccc1)C(=O)N[C@@H](C)C(=O)N[C@@H](Cc1nnn[nH]1)C(=O)N[C@@H](C)C(=O)N[C@@H](Cc1ccc(O)cc1)C(=O)N[C@@H](CO)C(=O)N[C@@H](CCCNC(=N)N)C(=O)N[C@@H](Cc1ccc(O)cc1)C(=O)N[C@@H](CCCNC(=N)N)C(=O)N[C@@H](CCCCN)C(=O)N[C@@H](CCC(N)=O)C(=O)N[C@@H](CC(C)C)C(=O)N[C@@H](C)C(=O)N[C@H](C(=O)N[C@@H](CCCCN)C(=O)N[C@@H](CCCCN)C(=O)N[C@@H](Cc1ccc(O)cc1)C(=O)N[C@@H](CC(C)C)C(=O)N[C@@H](C)C(=O)N[C@@H](C)C(=O)N[C@H](C(=O)N[C@@H](CC(C)C)C(N)=O)C(C)C)C(C)C [Peptide 27, HSTzGI FATzAY SRYRK QLAVK KYLAA VL] (Ac-HS[Ala(1H-tetrazol-5-yl)]GIFA[Ala(1H-tetrazol-5-yl)]AYSRYRKQLAVKKYLAAVL-NH2)
survival rate after correction for water, 40° C. 4 week ([4]; Tris buffer pH 7.0, 40° C., 4 weeks (Table 13)): 90.9%
survival rate after correction for water, 40° C. 8 week ([4]; Tris buffer pH 7.0, 40° C., 8 weeks (Table 13)): 84.3%
survival rate after correction for water, 60° C. 1 week ([4]; Tris buffer pH 7.0, 60° C., 1 week (Table 13)): 97.3%
survival rate after correction for water, 60° C. 2 week ([4]; Tris buffer pH 7.0, 60° C., 2 weeks (Table 13)): 95.5%

EC50 [2]: 0.069 nM
Molecule: CCCC[C@H](NC(=O)[C@H](CCC(N)=O)NC(=O)[C@H](CCCCN)NC(=O)[C@H](CCCNC(=N)N)NC(=O)[C@H](Cc1ccc(O)cc1)NC(=O)[C@H](CCCNC(=N)N)NC(=O)[C@H](CO)NC(=O)[C@H](Cc1ccc(O)cc1)NC(=O)[C@H](CO)NC(=O)[C@H](Cc1nnn[nH]1)NC(=O)[C@@H](NC(=O)[C@H](Cc1ccccc1)NC(=O)[C@@H](NC(=O)CNC(=O)[C@H](Cc1nnn[nH]1)NC(=O)[C@H](CO)NC(=O)[C@H](Cc1c[nH]cn1)NC(=O)CCC)[C@@H](C)CC)[C@@H](C)O)C(=O)N[C@@H](C)C(=O)N[C@H](C(=O)N[C@@H](CCCCN)C(=O)N[C@@H](CCCCN)C(=O)N[C@@H](Cc1ccc(O)cc1)C(=O)N[C@@H](CC(C)C)C(=O)N[C@@H](C)C(=O)N[C@@H](C)C(=O)N[C@H](C(=O)N[C@@H](CC(C)C)C(N)=O)C(C)C)C(C)C [Peptide 18] (Butyryl-HS[Ala(1H-tetrazol-5-yl)]GIFT[Ala(1H-tetrazol-5-yl)]SYSRYRKQ[Nle]AVKKYLAAVL-NH2)
survival rate after correction for water, 40° C. 4 week [3, 6]: 65.1%

EC50 [2]: 0.111 nM
Molecule: CC[C@H](C)[C@H](NC(=O)CNC(=O)C(Cc1nnn[nH]1)NC(=O)[C@H](CO)NC(=O)[C@@H](N)Cc1c[nH]cn1)C(=O)N[C@@H](Cc1ccccc1)C(=O)N[C@@H](C)C(=O)NC(Cc1nnn[nH]1)C(=O)N[C@@H](C)C(=O)N[C@@H](Cc1ccc(O)cc1)C(=O)N[C@@H](C)C(=O)N[C@@H](CCCNC(=N)N)C(=O)N[C@@H](Cc1ccc(O)cc1)C(=O)N[C@@H](CCCNC(=N)N)C(=O)N[C@@H](CCCCN)C(=O)N[C@@H](CCC(N)=O)C(=O)N[C@@H](CCSC)C(=O)N[C@@H](C)C(=O)N[C@H](C(=O)N[C@@H](CCCCN)C(=O)N[C@@H](CCCCN)C(=O)N[C@@H](Cc1ccc(O)cc1)C(=O)N[C@@H](CC(C)C)C(=O)N[C@@H](C)C(=O)N[C@@H](C)C(=O)N[C@H](C(=O)N[C@@H](CC(C)C)C(N)=O)C(C)C)C(C)C (stereo partly shown) [Peptide 3, HSTzGI FATzAY ARYRK QMAVK KYLAA VL] (H-HS[ξAla(tetrazol-5-yl)]GIFA[ξAla(tetrazol-5-yl)]AYARYRKQMAVKKYLAAVL-NH2)
survival rate after correction for water, 80° C. 8 week [5]: 85.4%
survival rate after correction for water, 40° C. 4 week ([3]; 0.1% phosphate buffer pH 7.0, 40° C., 4 weeks (Table 4)): 92.9%
